Values quoted from earlier work as cited in article PMC7395068, “The evolution of strategies to minimise the risk of human drug-induced liver injury (DILI) in drug discovery and development” (Archives of Toxicology, 2020).
Where two headings read alike, the source gives them in different places.

What was measured:
[1] = cited from earlier work
[2] = system: primary human hepatocytes, NIH3T3 fibroblasts, BSEP, CYP3A4; settings: In vitro Assay; ref Schadt 2015; cited from earlier work
[3] = system: THLE-Null and THLE-3A4 cells; settings: In vitro Assay; ref Gustafsson 2014; cited from earlier work
[4] = cited from earlier work; remark: listed apart in the source
rBsep = settings: In vitro Assay; ref Dawson 2012; cited from earlier work
human hepatocytes = settings: cited from earlier work
PHH spheroids = settings: In vitro Assay; ref Vorrink 2018; cited from earlier work
[5] = cited from earlier work; remark: listed apart in the source
[6] = system: isolated mouse liver mitochondria; settings: In vitro Assay; ref Porceddu 2012; cited from earlier work
[7] = system: THLE or HepG2 cells, isolated mitochondria, BSEP; settings: cited from earlier work
HepG2 cells [8] = settings: In vitro Assay; ref O'Brien 2006; cited from earlier work
HepG2 cells [9] = settings: In vitro Assay; ref Persson 2013; cited from earlier work
[10] = system: HepG2 cells, primary human hepatocytes; settings: cited from earlier work

Compound | DILI +VE (5-8), DILI -VE (-4) ([1]; in vivo) | DILI severity category ([1]; in vivo) | DILI Score (FDA) (1-8) ([4]; in vivo) | in vitro data EC2<=1x Cmax [6] | DILI +VE (5-8), DILI -VE (-4) ([1]; ref Chen 2016) | DILI severity category ([1]; ref Chen 2016) | Partition Hybrid HRM Score ([7]; In vitro Assay, ref Aleo 2019) | Ro2 Hybrid HRM Score ([7]; In vitro Assay, ref Aleo 2019) | In vivo DILI ([5]; […]) | In vivo DILI ([5]; ref Aleo 2019) | in vitro data EC20<=2uM [6] | DILI Score (FDA) (1-8) ([4]; ref Chen 2011) | further results
Nc1nc2c(ncn2COCCO)c(=O)[nH]1 [acyclovir] | +VE | vLess-DILI-Concern | 5 | – | – | – | – | – | – | – | – | – | Cellular toxicity (3T3 cells) [2]: -VE; Combined Assay [2]: -VE; GSH adduct HML [2]: -VE; Hepatocyte cellular toxicity [2]: -VE; MitoTox 3T3 [2]: -VE; TDI CYP3A4 [2]: -VE; hBSEP inhibition [2]: -VE; THLE-Null [3]: -VE; Inhibition of rBsep cutoff<1& cmax u>.2 (rBsep): -VE; Inhibition of rBsep cutoff<3 (rBsep): -VE
NC12CC3CC(CC(C3)C1)C2 [amantadine] | -VE | Ambiguous DILI-concern | 3 | -VE | – | – | – | – | – | – | – | – | Structural based (HCI) (human hepatocytes; In vitro Assay, ref Xu 2008): -VE; hLiMTs ATP <20 x Cmax (PHH spheroids): -VE; In vivo DILI ([5]; in vivo): -VE
CC1(C)S[C@@H]2[C@H](NC(=O)[C@H](N)c3ccc(O)cc3)C(=O)N2[C@H]1C(=O)O [amoxicillin] | – | – | – | +VE | +VE | vLess-DILI-Concern | -VE | -VE | -VE | +VE | +VE | 3 | In vivo DILI ([5]; ref Dawson 2012): -VE; In vivo DILI ([5]; ref Garside 2014): +VE; In vivo DILI ([5]; ref Gustafsson 2014): +VE; In vivo DILI ([5]; ref Porceddu 2012): +VE; In vivo DILI ([5]; ref Schadt 2015): -VE; THLE-Null [3]: -VE; Inhibition of rBsep cutoff<1& cmax u>.2 (rBsep): -VE; Inhibition of rBsep cutoff<3 (rBsep): -VE
CS(=O)(=O)OCCCCOS(C)(=O)=O [busulfan] | – | – | – | +VE | +VE | vMost-DILI-Concern | – | – | +VE | – | -VE | 8 | In vivo DILI ([5]; ref Porceddu 2012): +VE
OC(Cn1cncn1)(Cn1cncn1)c1ccc(F)cc1F [fluconazole] | – | – | – | +VE | +VE | vMost-DILI-Concern | – | -VE | +VE | +VE | -VE | 8 | Structural based (HCI) (human hepatocytes; In vitro Assay, ref Xu 2008): -VE; hLiMTs ATP <20 x Cmax (PHH spheroids): -VE; In vivo DILI ([5]; ref Porceddu 2012): +VE; In vivo DILI ([5]; ref Vorrink 2018): +VE; In vivo DILI ([5]; ref Xu 2008): +VE
CC(C)Cc1ccc(C(C)C(=O)O)cc1 (stereo not shown) [ibuprofen] | +VE | vLess-DILI-Concern | 3 | +VE | – | – | – | – | – | – | +VE | – | Cellular toxicity (3T3 cells) [2]: -VE; Combined Assay [2]: -VE; GSH adduct HML [2]: -VE; Hepatocyte cellular toxicity [2]: -VE; MitoTox 3T3 [2]: -VE; TDI CYP3A4 [2]: -VE; hBSEP inhibition [2]: -VE; Structural based (HCI) (HepG2 cells [8]): +VE; Structural based (HCI) (HepG2 cells [9]): +VE; THLE-Null [3]: -VE; Inhibition of rBsep cutoff<1& cmax u>.2 (rBsep): -VE; Inhibition of rBsep cutoff<3 (rBsep): +VE
O=C(c1ccccc1)c1ccc2n1CCC2C(=O)O (stereo not shown) [ketorolac] | – | – | – | – | +VE | vLess-DILI-Concern | -VE | -VE | – | +VE | – | 3 | Structural based (HCI) (HepG2 cells [8]): -VE; Cluser analysis (HepG2 cells [9]): -VE; Structural based (HCI) (HepG2 cells [9]): -VE; Structural based (HCI) (human hepatocytes; In vitro Assay, ref Xu 2008): -VE; hLiMTs ATP <20 x Cmax (PHH spheroids): +VE (IC20 < 20 × Cmax.tot cut-off); In vivo DILI ([5]; ref O'Brien 2006): +VE; In vivo DILI ([5]; ref Persson 2013): +VE; In vivo DILI ([5]; ref Vorrink 2018): +VE; In vivo DILI ([5]; ref Xu 2008): +VE
Sc1ncnc2nc[nH]c12 [mercaptopurine] | – | – | – | -VE | +VE | vMost-DILI-Concern | +VE | +VE | +VE | +VE | +VE | 8 | Structural based (HCI) (HepG2 cells [8]): +VE; Cluser analysis (HepG2 cells [9]): +VE; Structural based (HCI) (HepG2 cells [9]): +VE; Structural based (HCI) (human hepatocytes; In vitro Assay, ref Xu 2008): -VE; hLiMTs ATP <20 x Cmax (PHH spheroids): +VE (IC20 < 20 × Cmax.tot cut-off); In vivo DILI ([5]; ref O'Brien 2006): +VE; In vivo DILI ([5]; ref Persson 2013): +VE; In vivo DILI ([5]; ref Porceddu 2012): +VE; In vivo DILI ([5]; ref Vorrink 2018): +VE; In vivo DILI ([5]; ref Xu 2008): +VE
Cc1cccc(C)c1OCC(C)N (stereo not shown) [mexiletine] | +VE | vMost-DILI-Concern | 3 | – | – | – | – | – | – | – | – | – | Structural based (HCI) (human hepatocytes): +VE; hLiMTs ATP <20 x Cmax (PHH spheroids): +VE (IC20 < 20 × Cmax.tot cut-off); In vivo DILI ([5]; in vivo): +VE
CN(C)c1ccc(O)c2c1C[C@H]1C[C@H]3[C@H](N(C)C)C(O)=C(C(N)=O)C(=O)[C@@]3(O)C(O)=C1C2=O [minocycline] | +VE | vMost-DILI-Concern | 2 | – | – | – | – | – | – | – | – | – | Structural based (HCI) (HepG2 cells [8]): +VE; Cluser analysis (HepG2 cells [9]): -VE; Structural based (HCI) (HepG2 cells [9]): -VE; Ro2 Hybrid HRM Score [7]: +VE; In vivo DILI ([5]; in vivo): +VE
O=C1CC[C@@]2(O)[C@H]3Cc4ccc(O)c5c4[C@@]2(CCN3CC2CC2)[C@H]1O5 [naltrexone] | -VE | Ambiguous DILI-concern | 3 | – | – | – | – | – | – | – | – | – | Structural based (HCI) (human hepatocytes; In vitro Assay, ref Xu 2008): -VE; In vivo DILI ([5]; in vivo): +VE; THLE-Null [3]: -VE; THLE-Null/3A4 [3]: -VE
CNC(=C[N+](=O)[O-])NCCSCc1csc(CN(C)C)n1 [nizatidine] | – | – | – | – | +VE | vLess-DILI-Concern | -VE | -VE | – | +VE | – | 5 | Structural based (HCI) (HepG2 cells [8]): +VE (lowest HCI endpoint IC50 (or in the absence of dose–response < 100 µM) < 30 × total human plasma exposure levels (Cmax.tot)); In vivo DILI ([5]; ref O'Brien 2006): +VE
CCCCCCCCCCC[C@@H](C[C@@H]1OC(=O)[C@H]1CCCCCC)OC(=O)[C@H](CC(C)C)NC=O [orlistat] | – | – | – | – | +VE | vMost-DILI-Concern | +VE | +VE | – | +VE | – | 8 | –
CNC(=C[N+](=O)[O-])NCCSCc1ccc(CN(C)C)o1 [ranitidine] | – | – | – | +VE | +VE | vLess-DILI-Concern | -VE | -VE | +VE | +VE | -VE | 5 | In vivo DILI ([5]; ref Dawson 2012): +VE; In vivo DILI ([5]; ref Garside 2014): +VE; In vivo DILI ([5]; ref Gustafsson 2014): +VE; In vivo DILI ([5]; ref Porceddu 2012): +VE; In vivo DILI ([5]; ref Xu 2008): -VE; THLE-Null [3]: -VE; Inhibition of rBsep cutoff<1& cmax u>.2 (rBsep): -VE; Inhibition of rBsep cutoff<3 (rBsep): -VE
CO[C@H]1/C=C/O[C@@]2(C)Oc3c(C)c(O)c4c(O)c(c(/C=N/N5CCN(C)CC5)c(O)c4c3C2=O)NC(=O)/C(C)=C\C=C\[C@H](C)[C@H](O)[C@@H](C)[C@@H](O)[C@@H](C)[C@H](OC(C)=O)[C@@H]1C [rifampin] | – | – | – | – | +VE | vMost-DILI-Concern | +VE | +VE | +VE | +VE | – | 8 | In vivo DILI ([5]; ref Garside 2014): +VE; Cluster 1-6 +VE Assay ([10]; In vitro Assay, ref Garside 2014): -VE
C=CC[C@@H]1/C=C(\C)C[C@H](C)C[C@H](OC)[C@H]2O[C@@](O)(C(=O)C(=O)N3CCCC[C@H]3C(=O)O[C@H](/C(C)=C/[C@@H]3CC[C@@H](O)[C@H](OC)C3)[C@H](C)[C@@H](O)CC1=O)[C@H](C)C[C@@H]2OC [tacrolimus] | – | – | – | – | +VE | vLess-DILI-Concern | -VE | -VE | – | +VE | – | 5 | –
CCC[C@@]1(CCc2ccccc2)CC(O)=C([C@H](CC)c2cccc(NS(=O)(=O)c3ccc(C(F)(F)F)cn3)c2)C(=O)O1 [tipranavir] | – | – | – | – | +VE | vMost-DILI-Concern | +VE | +VE | – | +VE | – | 8 | –
COc1ccc(C(CN(C)C)C2(O)CCCCC2)cc1 (stereo not shown) [venlafaxine] | +VE | vLess-DILI-Concern | 7 | – | – | – | – | – | – | – | – | – | Partition Hybrid HRM Score [7]: +VE; Ro2 Hybrid HRM Score [7]: +VE; Cluster 1-6 +VE Assay [10]: -VE
carboplatin | – | – | – | – | +VE | vLess-DILI-Concern | -VE | -VE | – | +VE | – | 3 | –
